Assay results reported in ChEMBL document CHEMBL3507680, “University of Dundee, Gates Library screen for HepG2 cell viability”.

Experiment: Human HepG2 cell viability assay in 384 well format
Assay type: toxicity, cell-based
Parameters: dose 125 nL, time 70.5 hour; concentration not given beside the values
Settings: HepG2 cells, read-out: Inhibition

SMILES: CNC(=O)[C@H]1C[C@@H]2CCN(CCc3ccccc3)C[C@@H]2O1
- cytotoxicity at 70.5 h: -4.11%

SMILES: c1ccc(COC[C@@H]2CC[C@H]3[C@H](CCN3c3ncccn3)O2)nc1
- cytotoxicity at 70.5 h: -9.8%

SMILES: CSCc1cccc(S(=O)(=O)NCCCN2CCOCC2)c1
- cytotoxicity at 70.5 h: -6.88%

SMILES: O=C1CCCN1c1cccc(CNCc2cc(F)ccc2F)c1
- cytotoxicity at 70.5 h: -6.99%

SMILES: Cc1cccc(OCCC(=O)N(C)CC(C)C#N)c1C (stereo unspecified)
- cytotoxicity at 70.5 h: 19.7%

SMILES: CNc1ncc(CN2CCCC2c2[nH]ncc2C(=O)N(C)C)cn1 (stereo unspecified)
- cytotoxicity at 70.5 h: -3.21%

SMILES: COc1cccc(OCC2CCCN(C(=O)c3cnn(C)c3)C2)c1 (stereo unspecified)
- cytotoxicity at 70.5 h: 27.4%

SMILES: CCN1CCN(S(=O)(=O)c2cc(C)c(Cl)cc2Cl)CC1
- cytotoxicity at 70.5 h: 10.1%

SMILES: CCOCc1ccccc1NC(=O)NCC(C)(O)c1ccsc1 (stereo unspecified)
- cytotoxicity at 70.5 h: -2.17%

SMILES: CN(Cc1n[nH]c2c1CCCCC2)C(=O)c1cc(-c2cccn2C)n[nH]1
- cytotoxicity at 70.5 h: -5.14%

SMILES: O=C(NCCSc1cnn[nH]1)c1c[nH]nc1C1CCCCC1
- cytotoxicity at 70.5 h: 1.5%

SMILES: Cc1ccc(C)c2c(C)c(C(=O)NCCC(=O)N3CCOCC3)oc12
- cytotoxicity at 70.5 h: -10.6%

SMILES: CS(=O)(=O)N[C@H]1COC[C@@H]2CN(Cc3ccco3)C[C@@H]21
- cytotoxicity at 70.5 h: -5.39%

SMILES: Cc1nnc(NCc2ccccc2S(=O)(=O)N(C)C)c(C#N)c1C
- cytotoxicity at 70.5 h: 0.114%

SMILES: O=C(c1ccoc1)N1Cc2cnn(CC3CC3)c2C(COCC2CC2)C1 (stereo unspecified)
- cytotoxicity at 70.5 h: 16%

SMILES: Cn1c(CN2CCC(O)CC2)nnc1C1CCCN(c2ccncc2)C1 (stereo unspecified)
- cytotoxicity at 70.5 h: -9.58%

SMILES: COCCOc1ncccc1C(=O)Nc1c(C)cnn1CC1CC1
- cytotoxicity at 70.5 h: 8.78%

SMILES: CCCc1nnsc1C(=O)NCC1CCN(c2ccccn2)CC1
- cytotoxicity at 70.5 h: -6.19%

SMILES: Cc1nnc(CN2CCCC2c2ccsc2)o1 (stereo unspecified)
- cytotoxicity at 70.5 h: -4.6%

SMILES: CCc1ncncc1C(=O)NCCNS(=O)(=O)c1ccccc1
- cytotoxicity at 70.5 h: 13.9%

SMILES: CO[C@H]1CCN(S(=O)(=O)c2cn(C)cn2)[C@H]1Cc1cccnc1
- cytotoxicity at 70.5 h: -22.4%

SMILES: Cn1cc([C@@H]2CN(S(=O)(=O)c3cccnc3)C[C@H]2N)c2ccncc21
- cytotoxicity at 70.5 h: 24%

SMILES: Cc1ccc(=O)n(CC2(O)CCN(Cc3cnn(C)c3)CC2)n1
- cytotoxicity at 70.5 h: -3.09%

SMILES: CN(Cc1ccco1)C(=O)NCC(c1cccs1)N(C)C (stereo unspecified)
- cytotoxicity at 70.5 h: -11.2%

SMILES: Cc1nc(CN2CCC(Oc3ccc(F)cc3C)(C(=O)O)CC2)co1
- cytotoxicity at 70.5 h: -2.54%

SMILES: Cc1ccc(S(=O)(=O)NC(C)C#N)cc1Br (stereo unspecified)
- cytotoxicity at 70.5 h: -3.42%

SMILES: Nc1cc(O)nc(CCNC(=O)CC[C@@H]2CCCN3CCCC[C@H]23)n1
- cytotoxicity at 70.5 h: -4.87%

SMILES: Cc1noc(-c2cccnc2N2CCOC(C)(c3cnn(C)c3)C2)n1 (stereo unspecified)
- cytotoxicity at 70.5 h: -6.06%

SMILES: COc1c(C)cnc(CN2CCCC(Cn3nc(C)nc3C)C2)c1C (stereo unspecified)
- cytotoxicity at 70.5 h: -3.59%

SMILES: COc1cn(CC(N)=O)c(CSc2nccc(C)n2)cc1=O
- cytotoxicity at 70.5 h: 23.4%

SMILES: COc1ccc(OCC(C)NS(C)(=O)=O)cc1 (stereo unspecified)
- cytotoxicity at 70.5 h: -3.53%

SMILES: Cc1nn(C)c(N2CCOCC2)c1CNC(C)c1ccccn1 (stereo unspecified)
- cytotoxicity at 70.5 h: 5.82%

SMILES: O=S(=O)(c1cccnc1)N1C[C@@H]2COC[C@]2(COCC2CC2)C1
- cytotoxicity at 70.5 h: -3.67%

SMILES: CN(C)S(=O)(=O)N1CC[C@]2(O)CCN(c3cc(C#N)ccn3)C[C@@H]2C1
- cytotoxicity at 70.5 h: -7.65%

SMILES: COc1cc(CNCc2ccnc(N3CCOCC3)c2)cc(OC)c1
- cytotoxicity at 70.5 h: 17.7%

SMILES: CSc1nccc(N2CCN(C)C3(CCNC(=O)CC3)C2)n1 (stereo unspecified)
- cytotoxicity at 70.5 h: -5.4%

SMILES: CC(=O)c1cccc(OCCCC(=O)N(C)Cc2cccc(O)c2)c1
- cytotoxicity at 70.5 h: -6.39%

SMILES: CCOc1ccc(C#N)cc1NC(=O)N1CCOC(C(N)=O)C1 (stereo unspecified)
- cytotoxicity at 70.5 h: 23%

SMILES: Cc1c[nH]c(C(=O)N2CCn3nc(C(=O)NC4CC4)cc3C2)n1
- cytotoxicity at 70.5 h: 24.5%

SMILES: CCn1cc(NC(=O)NCC(c2cccc(OC)c2)N(C)C)cn1 (stereo unspecified)
- cytotoxicity at 70.5 h: -8.98%

SMILES: CCN(C(=O)c1ccc2nnc(C3CCN(C(C)=O)C3)n2c1)C(C)C (stereo unspecified)
- cytotoxicity at 70.5 h: -12.3%

SMILES: Cc1cccc(C(C)(C)CNC(=O)CN(C)S(=O)(=O)c2cccnc2)c1
- cytotoxicity at 70.5 h: -15.3%

SMILES: Cc1ccc(NC2CCN(C(=O)c3cccnc3N(C)C)CC2)nn1
- cytotoxicity at 70.5 h: 0.412%

SMILES: CCN(C)S(=O)(=O)NC(C)c1cnc(N(C)C2CCCCC2)nc1C (stereo unspecified)
- cytotoxicity at 70.5 h: -4.92%

SMILES: CCCc1cc(C(=O)N2Cc3cnc(C(C)(C)C)nc3C2)ccn1
- cytotoxicity at 70.5 h: 0.0745%

SMILES: COc1ccc(OCc2nc(C(=O)N3CCC(NC(C)=O)C3)co2)cc1 (stereo unspecified)
- cytotoxicity at 70.5 h: -1.19%

SMILES: COCCN1C[C@@H]2COC[C@@H](CC(=O)NCc3cccnc3)[C@@H]2C1
- cytotoxicity at 70.5 h: -16.6%

SMILES: CN(c1ccc(OCc2cnc(Cl)s2)cc1)S(C)(=O)=O
- cytotoxicity at 70.5 h: 5.74%

SMILES: CCN1CCC2(CC1)CC(COC)N(Cc1csc(C)n1)C2 (stereo unspecified)
- cytotoxicity at 70.5 h: -5.79%

SMILES: CCn1cc(CN2CCCN(C(=O)C3(C)CCOCC3)CC2)cn1
- cytotoxicity at 70.5 h: -10.2%

SMILES: O=C(CCn1c(=O)oc2ccccc21)NCC(O)c1ccccc1 (stereo unspecified)
- cytotoxicity at 70.5 h: -3.91%

SMILES: COCc1cc(CN(C)C(C(=O)O)c2cc(C)c(OC)c(C)c2)n[nH]1 (stereo unspecified)
- cytotoxicity at 70.5 h: -2.3%

SMILES: COCc1cc(CN(C)C(=O)c2c[nH]nc2-c2cccc(F)c2)n[nH]1
- cytotoxicity at 70.5 h: 19.4%

SMILES: COCc1ncn(Cc2nc(-c3ccco3)oc2C)n1
- cytotoxicity at 70.5 h: 6.06%

SMILES: CCN1c2ccc(-c3cncn3CCCn3ccnc3C)cc2CC1C (stereo unspecified)
- cytotoxicity at 70.5 h: -0.494%

SMILES: CCc1ccc(S(=O)(=O)N2CCCC(c3ncc[nH]3)C2)s1 (stereo unspecified)
- cytotoxicity at 70.5 h: -4.54%
